Experiment [1] concerns the target T1, Alpha-2C adrenergic receptor (Homo sapiens, UniProt P18825).
T1 sequence (P18825 whole entry): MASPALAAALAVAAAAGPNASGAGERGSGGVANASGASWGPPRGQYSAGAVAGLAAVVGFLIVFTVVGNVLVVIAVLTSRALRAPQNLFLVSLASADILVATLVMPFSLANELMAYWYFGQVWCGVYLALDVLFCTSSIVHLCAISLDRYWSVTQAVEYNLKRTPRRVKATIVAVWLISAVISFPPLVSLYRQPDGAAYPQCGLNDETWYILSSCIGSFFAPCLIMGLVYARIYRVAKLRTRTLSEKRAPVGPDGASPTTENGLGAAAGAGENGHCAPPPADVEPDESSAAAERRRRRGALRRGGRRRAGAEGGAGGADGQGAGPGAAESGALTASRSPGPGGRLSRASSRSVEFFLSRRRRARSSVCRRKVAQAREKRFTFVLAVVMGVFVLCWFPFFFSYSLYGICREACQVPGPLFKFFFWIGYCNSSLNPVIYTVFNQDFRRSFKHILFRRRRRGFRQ

The target of experiment [2] is T2, Alpha-2A adrenergic receptor (Mus musculus, UniProt Q1HL33).
T2 sequence (Q1HL33 whole entry): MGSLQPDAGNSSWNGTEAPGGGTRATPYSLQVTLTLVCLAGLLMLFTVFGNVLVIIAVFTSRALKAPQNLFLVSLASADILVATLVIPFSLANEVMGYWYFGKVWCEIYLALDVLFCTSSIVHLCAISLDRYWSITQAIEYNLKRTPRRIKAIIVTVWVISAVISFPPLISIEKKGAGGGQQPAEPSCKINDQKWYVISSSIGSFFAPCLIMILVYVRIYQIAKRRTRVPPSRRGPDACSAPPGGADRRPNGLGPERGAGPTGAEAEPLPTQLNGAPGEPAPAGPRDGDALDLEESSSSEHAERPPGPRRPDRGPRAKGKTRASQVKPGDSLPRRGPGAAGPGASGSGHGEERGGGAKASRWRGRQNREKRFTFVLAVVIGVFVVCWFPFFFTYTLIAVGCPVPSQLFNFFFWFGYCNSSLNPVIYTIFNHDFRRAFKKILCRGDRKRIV

For experiment [3], the target named is T3, Alpha-2A adrenergic receptor (Homo sapiens, UniProt P08913).
T3 sequence (P08913 whole entry): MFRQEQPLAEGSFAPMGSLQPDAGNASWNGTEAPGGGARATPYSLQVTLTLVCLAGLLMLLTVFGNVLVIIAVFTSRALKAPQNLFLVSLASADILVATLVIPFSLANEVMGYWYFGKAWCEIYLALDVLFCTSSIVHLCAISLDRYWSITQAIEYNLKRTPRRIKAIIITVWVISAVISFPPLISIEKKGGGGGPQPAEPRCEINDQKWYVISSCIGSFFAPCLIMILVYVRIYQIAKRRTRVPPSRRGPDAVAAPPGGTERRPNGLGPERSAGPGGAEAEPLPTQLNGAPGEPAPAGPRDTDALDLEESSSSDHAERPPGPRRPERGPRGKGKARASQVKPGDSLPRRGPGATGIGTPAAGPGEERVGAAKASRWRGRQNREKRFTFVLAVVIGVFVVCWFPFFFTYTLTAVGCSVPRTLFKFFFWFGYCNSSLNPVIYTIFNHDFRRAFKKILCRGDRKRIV

SMILES strings stand for the structures. Values joined by “and” are separate entries in the source; they are usually repeats but may differ in a detail not shown here. Equal values may be shown once. A value given as a limit tells only on which side of the number the result lay.

Broadly, the Ki is a measure of affinity in units of concentration, obtained from inhibition or displacement. In experiment [1], `C[C@@H](Oc1c(Cl)cccc1Cl)C1=NCCN1` [CAS_81447-78-1] had a Ki of 174 nM.
For `NCC(O)c1ccc(O)c(O)c1` (stereo not drawn) [Noradrenaline,(+)], the Ki turned out to be 1410 nM in experiment [2] and 1350 nM in experiment [1].
For the compound `CN1CCC2(CCN3CCc4c(oc5ccccc45)C3C2)N(C)C1=O` (centres undefined) [MK-912], the results for the Ki in experiment [3] and in experiment [1] were 0.85 nM and 0.07 nM, respectively.
On to `CCn1ccnc1CC1COc2ccccc2O1` (centres undefined) [NSC_133621], for which the Ki in experiment [3] was 316 nM; in experiment [1], 151 nM.
Regarding `Oc1ccc2c(c1O)CCC[C@@H]2C1=NCCN1` [A-54741], the results for the Ki in experiment [2] and in experiment [1] were 9.77 nM and 776 nM, respectively.
Regarding `c1ccc2c(CC3=NCCN3)cccc2c1` [Naphazoline], the Ki was 20.9 nM in experiment [3]; 11.5 nM and 17 nM in experiment [2]; 407 nM in experiment [1].
As to `c1cc2c(c(NC3=NCCN3)c1)CCCC2`, the figures for the Ki in experiment [3], in experiment [2] and in experiment [1] were 31.6 nM, 15.5 nM and 275 nM, respectively.
For the compound `C=CCN(C1=NCCN1)c1c(Cl)cccc1Cl` [CAS_33178-86-8], the Ki in experiment [3] is 6030 nM; in experiment [1], above 10000 nM.
Turning to `CCc1cccc(CC)c1NC1=NCCN1` [ST 91], the Ki stood at 575 nM in experiment [3], 537 nM in experiment [2] and 617 nM in experiment [1].
In the same order, the values of `Cc1cccc(C)c1N=C1NCCCS1` [(5,6-Dihydro-4H-[1,3]thiazin-2-yl)-(2,6-dimethyl-phenyl)-amine] are 5750 nM, 2400 nM and above 10000 nM.
For the compound `Cc1cc(C(C)(C)C)c(O)c(C)c1CC1=NCCN1` [SMR000059324], the Ki in experiment [2] was 15.5 nM and 25.7 nM.
With `COC1(C2=NCCN2)COc2ccccc2O1` (centres undefined) [RX821002], the Ki was found to be 0.36 nM in experiment [3], 0.62 nM in experiment [2] and 0.79 nM in experiment [1].
As to `C=CCN1CCc2nc(N)sc2CC1` [B-HT 920], the Ki in experiment [3] was found to be 398 nM; in experiment [1] it was 955 nM.
In turn, `N=C(N)NC(=O)Cc1c(Cl)cccc1Cl` [NSC_3519] yielded a Ki in experiment [2] of 20.4 nM.
On the same count and under the same terms, for `Clc1cccc(Cl)c1N=C1NCCN1` [2-(2,6-dichloroanilino)-2-imidazoline] the value was 40.7 nM.
Take `Nc1cc(Cl)c(N=C2NCCN2)c(Cl)c1` [p-AMINOCLONIDINE]: the values for the Ki in experiment [3] and in experiment [1] were 7.94 nM and 21.4 nM, respectively.
Regarding `C1COC(NC(C2CC2)C2CC2)=N1` [rilmenidine], the Ki is 1580 nM in experiment [3], 724 nM in experiment [2] and 4680 nM in experiment [1].
Take `Fc1cccc(Cl)c1C1CC2=NCCN2C1` (centres undefined) [CAS_67249-51-8]: the Ki stood at 7.94 nM in experiment [3] and 282 nM in experiment [1].
`CC(N)C(O)c1ccc(O)c(O)c1` (stereo not drawn) [alpha-Methyl-(+/-)norepinephrine,(+/-)]: the Ki in experiment [3] came out at 3630 nM; in experiment [1], 2880 nM.
In turn, `CC(C)NCC(O)c1ccc(O)c(O)c1` (stereo not drawn) [Isoproterenol,(+)] came in with a Ki in experiment [2] above 10000 nM.
With `Cc1cccc([C@@H](C)c2cnc[nH]2)c1C`, the Ki came to 3.39 nM in experiment [2] and 95.5 nM in experiment [1].
On to `Cc1cc(C(C)(C)C)cc(C)c1CC1=NCCN1` [SMR000058526], for which the Ki in experiment [3] was 15.1 nM; in experiment [2], 25.7 nM and 24 nM; in experiment [1], 129 nM.
In the case of `c1ccc2ccccc2c1` [naphtaline], the inhibition constant Ki in experiment [3] was 4.57 nM; in experiment [2] it was 7.76 nM and 9.33 nM; in experiment [1], 3.31 nM.

The values are drawn from BindingDB's records for doi:10.1016/s0006-2952(97)00631-x (Roche Bioscience, 1998).
